Usually IC50 stands for the midpoint of a concentration-inhibition curve. By inhibition is commonly meant the relative decrease from the control value, in per cent.

Experiment [1] addresses T1, Recombinant purified human CDK7 (Homo sapiens, UniProt P50613).
T1 construct: purchased ThermoFisher PV3868
Nature of the experiment: CDK7 activity inhibition, ADP-Glo kinase assay. The experiment is classed as biochemical. The conditions noted are these: ATP 90 μM, MBP substrate, 2 hours 30° C. The method, then:
Recombinant purified human CDK7 (ThermoFisher, PV3868) and ADP Glo Kinase Assay Kit (Promega, V9102) were used. CDK7 was diluted with 1× kinase reaction buffer (40 mM Tris-Cl, pH 7.5, 20 mM MgCl2, 0.1 mg/ml BSA and 50 μM DTT) and added to a 96 well plate (CDK7 final concentration per reaction: 50 ng). It was finally treated with the compound of the present invention to a 1% DMSO aqueous solution, and a substrate cocktail containing ATP (final concentration of 90 μM) and 0.2 μg/μl MBP (myelin basic protein) in a total of 25 μl reaction mass was added to a 96 well plate, thereby initiating the enzymatic reaction. After 2 hours of incubation (30° C.), an equal volume (25 μl per reaction) of ADP Glo was added and incubated at room temperature for 60 minutes (30° C.). Thereafter, kinase detection reagent (50 μl per reaction) was added and incubated at room temperature for 30 minutes (30° C.). The kinase activity was measured by the chemiluminescence method according to the ADP Glo Kinase Assay Kit instruction manual, and the CDK7 inhibitory activity of the compounds of the present invention was calculated.
A general note: ADP-Glo turns the ADP formed in a reaction into a luminescent signal.

The test system of experiment [2] is MV-4-11 cells. Kind of experiment: MV-4-11 cell proliferation inhibition (CCK-8). The experiment is classed as cell-based. The conditions noted are these: 72 hours; for inhibition at 0.1 µM / IC50: Homo sapiens; for inhibition at 0.1 µM: MV4-11, MV-4-11, compound concentration 100 nM, read-out: Inhibition rate (%); for IC50: MV4-11, MV-4-11 proliferation; for Inhibition rate (%): MV-4-11, compound concentration 100 nM. The method, then: MV-4-11 cells are one of the acute myeloid leukemia cells with a Fms-like tyrosine kinase (FLT3) gene mutation, and these cells are used to test inhibition of proliferation and survival of leukemia cells.
MV-4-11 cells cultured in a 96-well cell culture plate were treated with the compound of the present invention and cultured for 72 hours. Thereafter, the antiproliferative effect of the compound was assayed by the CCK-8 method using a tetrazolium salt.

For experiment [3], the system named is MDA-MB-468 cells. Nature of the experiment: MDA-MB-468 cell proliferation inhibition (MTT). The experiment is classed as cell-based. The conditions noted are these: for Inhibition rate (%): MDA-MB-468, compound concentration 100 nM; for IC50: MDA-MB-468 proliferation. As for the experimental part:
MDA-MB-468 cells are one of the triple-negative breast cancer (TNBC: negative for the expression of estrogen receptor, progesterone receptor and HER2) cells known as a malignant tumor that is difficult to diagnose at an early stage and has a high metastatic capacity, and these cells are used to test inhibition of proliferation and survival of breast cancer cells.
MDA-MB-468 cells cultured in a 96-well cell culture plate were treated with the compound of the present invention and cultured for 72 hours. Thereafter, the antiproliferative effect of the compound was assayed by the MTT method using a tetrazolium salt.

The subject of experiment [4] is HepG2 cells. Kind of experiment: HepG2 cell proliferation inhibition (CCK-8). The experiment is classed as cell-based. The following applies: Homo sapiens, HepG2, 72 h. The method, then:
HepG2 cells are human hepatocellular carcinoma cells. In order to evaluate the efficacy of inhibiting the proliferation in HepG2 cells, HepG2 cells were treated with the compounds of the present invention, and the proliferation level was measured as follows.
The cells were cultured with a culture medium of MEM (Welgene)+10% FBS (Gibco)+1% penicillin/streptomycin (Gibco) at 37° C. in a humidified condition in the presence of 5% CO2. HepG2 cells cultured in a 96-well cell culture plate were treated with the compound of the present invention and cultured for 72 hours.

T1 sequence (P50613 whole entry): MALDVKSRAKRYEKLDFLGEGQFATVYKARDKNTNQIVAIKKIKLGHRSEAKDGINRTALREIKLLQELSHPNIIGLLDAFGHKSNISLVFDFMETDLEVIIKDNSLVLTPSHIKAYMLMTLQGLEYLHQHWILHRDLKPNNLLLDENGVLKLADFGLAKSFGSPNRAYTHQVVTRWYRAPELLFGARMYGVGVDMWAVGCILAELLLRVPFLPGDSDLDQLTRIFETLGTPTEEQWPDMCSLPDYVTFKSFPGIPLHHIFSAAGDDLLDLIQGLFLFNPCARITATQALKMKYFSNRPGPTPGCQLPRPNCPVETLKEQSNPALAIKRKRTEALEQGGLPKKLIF
T1 sequence (P51946 whole entry partner): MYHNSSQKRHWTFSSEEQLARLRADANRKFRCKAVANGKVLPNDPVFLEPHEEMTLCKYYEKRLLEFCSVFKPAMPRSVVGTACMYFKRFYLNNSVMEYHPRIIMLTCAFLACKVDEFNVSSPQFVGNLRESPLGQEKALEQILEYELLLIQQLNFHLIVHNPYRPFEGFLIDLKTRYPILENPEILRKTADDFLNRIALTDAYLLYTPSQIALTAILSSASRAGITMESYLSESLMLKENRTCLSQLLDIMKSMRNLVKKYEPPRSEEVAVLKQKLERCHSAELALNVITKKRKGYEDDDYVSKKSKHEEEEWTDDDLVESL
T1 sequence (P51948 whole entry partner): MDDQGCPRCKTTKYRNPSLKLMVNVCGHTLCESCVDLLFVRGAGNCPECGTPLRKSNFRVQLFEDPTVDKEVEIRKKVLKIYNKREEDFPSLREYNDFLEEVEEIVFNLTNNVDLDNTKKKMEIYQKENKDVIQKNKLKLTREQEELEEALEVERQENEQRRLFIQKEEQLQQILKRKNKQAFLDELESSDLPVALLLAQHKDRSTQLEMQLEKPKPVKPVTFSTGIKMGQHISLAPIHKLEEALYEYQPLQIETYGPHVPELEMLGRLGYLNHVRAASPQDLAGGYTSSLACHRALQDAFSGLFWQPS

Consider `C=CC(=O)Nc1ccc(-c2cccc([C@H](C)C(=O)Nc3ncc(C4CC4)s3)c2)cn1` [Compound 14], for which the IC50 in experiment [1] was 28 nM. Besides, in experiment [2], the inhibition at 0.1 µM is 100% and the midpoint of inhibition, the IC50, lay at 45.8 nM.

With `C[C@H](C(=O)Nc1ncc(C2CC2)s1)c1cccc(-c2ccc(NC(=O)/C=C/CN(C)C)nc2)c1` [Compound 15], the IC50 in experiment [1] stood at 11 nM. The inhibition at 0.1 µM in experiment [2] came to 100%.

For the molecule `C=CC(=O)Nc1cncc(-c2cccc([C@H](C)C(=O)Nc3ncc(C4CC4)s3)c2)n1` [Compound 16], the “Inhibition rate (%)” value is reported as 53% in experiment [3] (72 hours) and 90% in experiment [2].

For `C=CC(=O)Nc1cnc(-c2cccc([C@H](C)C(=O)Nc3ncc(C4CC4)s3)c2)cn1` [Compound 22], the “Inhibition rate (%)” value in experiment [3] (72 hours) is listed as 72%; in experiment [2] it was 100%.

Consider `C=CC(=O)Nc1ncc(-c2cccc([C@H](C)C(=O)Nc3ncc(C4CC4)s3)c2)cn1` [Compound 27], for which the “Inhibition rate (%)” value was determined as 74% in experiment [3] (72 hours) and 100% in experiment [2].

With `C=CC(=O)Nc1ccc(-c2cccc([C@H](C)C(=O)Nc3ncc(C4CC4)s3)c2)nn1` [Compound 28], the “Inhibition rate (%)” value amounted to 74% in experiment [3] (72 hours) and 100% in experiment [2].

In the case of `C=CC(=O)Nc1ncc(-c2cccc([C@H](C)C(=O)Nc3ncc(C4CC4)s3)c2)cc1F` [Compound 29], the “Inhibition rate (%)” value came to 75% in experiment [3] (72 hours) and 100% in experiment [2].

With `C=CC(=O)Nc1cnc(-c2cccc([C@H](C)C(=O)Nc3ncc(C(F)(F)F)s3)c2)cn1` [Compound 37, (S)-N-(5-(3-(1-oxo-1-((5-(trifluoromethyl)thiazol-2-yl)amino)propan-2-yl)phenyl)pyrazin-2-yl)acrylamide], the IC50 in experiment [1] worked out at 17.8 nM. Also, the inhibition at 0.1 µM in experiment [2] came to 100%.

Regarding `C=CC(=O)Nc1cnc(-c2cncc(C(C)C(=O)Nc3ncc(C(F)(F)F)s3)c2)cn1` (stereo not shown) [Compound 45, N-(5-(5-(1-oxo-1-((5-(trifluoromethyl)thiazol-2-yl)amino)propan-2-yl)pyridin-3-yl)pyrazin-2-yl)acrylamide], the IC50 is 22.7 nM in experiment [1]; at most 14 nM in experiment [3] (Homo sapiens, MDA-MB-468, 72 h); 9.5 nM in experiment [3] (72 hours); 8 nM in experiment [2]; 8.3 nM in experiment [4]. Besides, the inhibition at 0.1 µM in experiment [2] stood at 100%.

As to `C=CC(=O)Nc1cnc(-c2cncc([C@H](C)C(=O)Nc3ncc(C(F)(F)F)s3)c2)cn1` [Compound 52, (S)-N-(5-(5-(1-oxo-1-((5-(trifluoromethyl)thiazol-2-yl)amino)propan-2-yl)pyridin-3-yl)pyrazin-2-yl)acrylamide], the IC50 in experiment [1] was 19.2 nM; in experiment [2], 4.5 nM.

Regarding `CC(C(=O)Nc1ncc(C(F)(F)F)s1)c1cncc(-c2cnc(NC(=O)/C=C/CN(C)C)cn2)c1` (stereo not shown) [Compound 63, (E)-4-(dimethylamino)-N-(5-(5-(1-oxo-1-((5-(trifluoromethyl)thiazol-2-yl)amino)propan-2-yl)pyridin-3-yl)pyrazin-2-yl)but-2-enamide], the IC50 is 17.8 nM in experiment [1] and 5.2 nM in experiment [2].

With `CC(C(=O)Nc1ncc(Cl)s1)c1cncc(-c2cnc(NC(=O)/C=C/CN(C)C)cn2)c1` (stereo not shown) [Compound 73, (E)-N-(5-(5-(1-((5-chlorothiazol-2-yl)amino)-1-oxopropan-2-yl)pyridin-3-yl)pyrazin-2-yl)-4-(dimethylamino)but-2-enamide], the IC50 in experiment [1] came out at 43.4 nM; in experiment [2], 11 nM.

Turning to `CC(C(=O)Nc1ncc(C(F)(F)F)s1)c1cncc(-c2cnc(NC(=O)/C=C/CN3CCOCC3)cn2)c1` (stereo not shown) [Compound 74, (E)-4-morpholino-N-(5-(5-(1-oxo-1-((5-(trifluoromethyl)thiazol-2-yl)amino)propan-2-yl)pyridin-3-yl)pyrazin-2-yl)but-2-enamide], the IC50 came out at 77 nM in experiment [1] and 30.3 nM in experiment [2].

On to `C=CC(=O)Nc1ccc(-c2cncc(C(C)C(=O)Nc3ncc(C(F)(F)F)s3)c2)cn1` (stereo not shown) [Compound 82, N-(5′-(1-oxo-1-((5-(trifluoromethyl)thiazol-2-yl)amino)propan-2-yl)-[3,3′-bipyridin]-6-yl)acrylamide], for which the IC50 in experiment [1] was 36 nM; in experiment [2] it was 9.1 nM.

For `CC(C(=O)Nc1ncc(C(F)(F)F)s1)c1cncc(-c2cnc(NC(=O)/C=C/CN3CC4CC3CO4)cn2)c1` (stereo not shown) [Compound 83, (E)-4-(2-oxa-5-azabicyclo[2.2.1]heptan-5-yl)-N-(5-(5-(1-oxo-1-((5-(trifluoromethyl)thiazol-2-yl)amino)propan-2-yl)pyridin-3-yl)pyrazin-2-yl)but-2-enamide], the IC50 in experiment [1] turned out to be 23 nM; in experiment [2], 6.9 nM.

In the case of `C[C@H](C(=O)Nc1ncc(C(F)(F)F)s1)c1cccc(-c2cnc(NC(=O)/C=C/CN3CC4CC3CO4)cn2)c1` (stereo partly drawn) [Compound 96, (E)-4-(2-oxa-5-azabicyclo[2.2.1]heptan-5-yl)-N-(5-(3-((S)-1-oxo-1-((5-(trifluoromethyl)thiazol-2-yl)amino)propan-2-yl)phenyl)pyrazin-2-yl)but-2-enamide], the IC50 in experiment [1] came to 7.6 nM; in experiment [2], 43.9 nM.

For `C[C@H](C(=O)Nc1ncc(C(F)(F)F)s1)c1cccc(-c2cnc(NC(=O)/C=C/CN(C)C)c(F)c2)c1` [Compound 99, (S,E)-4-(dimethylamino)-N-(3-fluoro-5-(3-(1-oxo-1-((5-(trifluoromethyl)thiazol-2-yl)amino)propan-2-yl)phenyl)pyridin-2-yl)but-2-enamide], the IC50 in experiment [1] came to 7.6 nM; in experiment [2] it was 12.7 nM.

Turning to `C[C@H](C(=O)Nc1ncc(C(F)(F)F)s1)c1cccc(-c2cnc(NC(=O)/C=C/CN(C)C)c(C#N)c2)c1` [Compound 101, (S,E)-N-(3-cyano-5-(3-(1-oxo-1-((5-(trifluoromethyl)thiazol-2-yl)amino)propan-2-yl)phenyl)pyridin-2-yl)-4-(dimethylamino)but-2-enamide], the IC50 worked out at 4.3 nM in experiment [1] and 12.3 nM in experiment [2].

Take `C[C@H](C(=O)Nc1ncc(C2CCC2)s1)c1cccc(-c2cnc(NC(=O)/C=C/CN(C)C)cn2)c1` [Compound 104, (S,E)-N-(5-(3-(1-((5-cyclobutylthiazol-2-yl)amino)-1-oxopropan-2-yl)phenyl)pyrazin-2-yl)-4-(dimethylamino)but-2-enamide]: the figures for the IC50 in experiment [1] and in experiment [2] were 9 nM and 30.7 nM, respectively.

For `CC(C(=O)Nc1ncc(C(F)(F)F)s1)c1cncc(-c2cnc(NC(=O)/C=C/CN(C)C)c(C#N)c2)c1` (stereo not shown) [Compound 108, (E)-N-(5-cyano-5′-(1-oxo-1-((5-(trifluoromethyl)thiazol-2-yl)amino)propan-2-yl)-[3,3′-bipyridin]-6-yl)-4-(dimethylamino)but-2-enamide], the IC50 worked out at 10.5 nM in experiment [1] and 7.1 nM in experiment [2].

On to `C[C@H](C(=O)Nc1ncc(C(F)(F)F)s1)c1cccc(-c2cnc(NC(=O)/C=C/CN3CC[C@@H](F)C3)cn2)c1` [Compound 115, (E)-4-((R)-3-fluoropyrrolidin-1-yl)-N-(5-(3-((S)-1-oxo-1-((5-(trifluoromethyl)thiazol-2-yl)amino)propan-2-yl)phenyl)pyrazin-2-yl)but-2-enamide], for which the IC50 turned out to be 17 nM in experiment [1] and 12.6 nM in experiment [4].

Turning to `C[C@H](C(=O)Nc1ncc(C(F)(F)F)s1)c1cccc(-c2cnc(NC(=O)/C=C/CN3CCC(O)C3)cn2)c1` (stereo partly drawn) [Compound 119, (E)-4-(3-hydroxypyrrolidin-1-yl)-N-(5-(3-((S)-1-oxo-1-((5-(trifluoromethyl)thiazolyl)amino)propan-2-yl)phenyl)pyrazin-2-yl)but-2-enamide], the IC50 stood at 9 nM in experiment [1] and 44 nM in experiment [3] (72 hours).

In the case of `CCc1cnc(NC(=O)[C@@H](C)c2cccc(-c3cnc(NC(=O)/C=C/CN(C)C)c(F)c3)c2)s1` [Compound 130, (S,E)-4-(dimethylamino)-N-(5-(3-(1-((5-ethylthiazol-2-yl)amino)-1-oxopropan-2-yl)phenyl)-3-fluoropyridin-2-yl)but-2-enamide], the IC50 was 4 nM in experiment [1]; at most 14 nM in experiment [3] (Homo sapiens, MDA-MB-468, 72 h); 7 nM in experiment [3] (72 hours).

The values above are taken from patent US20230095520A1, “PHARMACEUTICAL COMPOSITION FOR PREVENTING OR TREATING CANCER COMPRISING AZOLE DERIVATIVES OR PHARMACEUTICALLY ACCEPTABLE SALT THEREOF” (Yungjin Pharm. Co., Ltd., priority 2020, published 2023).
